# Columns and labels:
# B16-F10 [1] = experiment: Induction of apoptosis in mouse B16-F10 cells assessed as late apoptotic cells at 25 nM incubated for 48 hrs by annexinV-FITC/PI staining based flow cytometry (reference value: 2.06 %); assay type: functional
# B16-F10 [2] = experiment: Induction of apoptosis in mouse B16-F10 cells assessed as late apoptotic cells at 50 nM incubated for 48 hrs by annexinV-FITC/PI staining based flow cytometry (reference value: 2.06 %); assay type: functional
# B16-F10 [3] = experiment: Induction of cell cycle arrest in mouse B16-F10 cells assessed as accumulation at S phase at 10 nM incubated for 24 hrs by PI staining based flow cytometry (reference value: 21.79 %); assay type: functional
# B16-F10 [4] = experiment: Inhibition of colony formation in mouse B16-F10 cells at 50 uM incubated for 24 hrs and subsequent replacement of medium without compound measured after 10 to 14 days by crystal violet staining based assay relative to control; assay type: functional
# [5] = Toxicity in C57 mouse allografted with mouse B16-F10 cells assessed as pathological damage in heart at 10 mg/kg, ip administered consecutively for 14 days by H and E staining based analysis; assay type: organism-based; conditions: in vivo, 336 h, time 14 day
# B16-F10 [6] = experiment: Induction of apoptosis in mouse B16-F10 cells assessed as viable cells at 50 nM incubated for 48 hrs by annexinV-FITC/PI staining based flow cytometry (reference value: 93.6 %); assay type: functional; conditions: read-out: Activity
# B16-F10 [7] = experiment: Antiproliferative activity against mouse B16-F10 cells incubated for 48 hrs by MTT assay; assay type: functional, cell-based; conditions: B16-F10, 48 h
# B16-F10 [8] = experiment: Induction of cell cycle arrest in mouse B16-F10 cells assessed as accumulation at S phase at 50 nM incubated for 24 hrs by PI staining based flow cytometry (reference value: 21.79 %); assay type: functional
# [9] = Toxicity in C57 mouse allografted with mouse B16-F10 cells assessed as pathological damage in liver at 10 mg/kg, ip administered consecutively for 14 days by H and E staining based analysis; assay type: organism-based; conditions: in vivo, 336 h, time 14 day
# B16-F10 [10] = experiment: Inhibition of cell migration in mouse B16-F10 cells assessed as wound area ratio at 50 nM incubated for 24 hrs by wound healing assay relative to control; assay type: functional
# B16-F10 [11] = experiment: Induction of apoptosis in mouse B16-F10 cells assessed as necrotic cells at 50 nM incubated for 48 hrs by annexinV-FITC/PI staining based flow cytometry (reference value: 0.064 %); assay type: functional
# HCT-116 = experiment: Antiproliferative activity against human HCT-116 cells incubated for 48 hrs by MTT assay; assay type: functional, cell-based; conditions: HCT-116, 48 h
# B16-F10 [12] = experiment: Induction of cell cycle arrest in mouse B16-F10 cells assessed as accumulation at G2 phase at 25 nM incubated for 24 hrs by PI staining based flow cytometry (reference value: 23.04 %); assay type: functional
# B16-F10 [13] = experiment: Induction of apoptosis in mouse B16-F10 cells assessed as necrotic cells at 25 nM incubated for 48 hrs by annexinV-FITC/PI staining based flow cytometry (reference value: 0.064 %); assay type: functional
# B16-F10 [14] = experiment: Immunomodulatory activity in mouse B16-F10 cells allografted in C57 mouse assessed as increase in CD3-positive CD8-positive cells at 10 mg/kg, ip administered consecutively for 14 days in presence of NP-19 (reference value: 6.66 %); assay type: functional; conditions: time 14 day
# B16-F10 [15] = experiment: Immunomodulatory activity in mouse B16-F10 cells allografted in C57 mouse assessed as decrease in PD-L1 level at 10 mg/kg, ip administered consecutively for 14 days in presence of NP-19 relative to control; assay type: functional; parameters: scale not given: the % may be the effect or the level left; conditions: time 14 day
# B16-F10 [16] = experiment: Induction of cell cycle arrest in mouse B16-F10 cells assessed as accumulation at G1 phase at 10 nM incubated for 24 hrs by PI staining based flow cytometry (reference value: 52.77 %); assay type: functional
# B16-F10 [17] = experiment: Immunomodulatory activity in mouse B16-F10 cells allografted in C57 mouse assessed as decrease in PD-L1 level at 10 mg/kg, ip administered consecutively for 14 days relative to control; assay type: functional; parameters: scale not given: the % may be the effect or the level left; conditions: time 14 day
# B16-F10 [18] = experiment: Immunomodulatory activity in mouse B16-F10 cells allografted in C57 mouse assessed as increase in CD3-positive CD4-positive cells at 10 mg/kg, ip administered consecutively for 14 days (reference value: 8.35 %); assay type: functional; conditions: time 14 day
# HepG2 = experiment: Antiproliferative activity against human HepG2 cells incubated for 48 hrs by MTT assay; assay type: functional, cell-based; conditions: HepG2, 48 h
# B16-F10 [19] = experiment: Induction of cell cycle arrest in mouse B16-F10 cells assessed as accumulation at G2 phase at 10 nM incubated for 24 hrs by PI staining based flow cytometry (reference value: 23.04 %); assay type: functional
# HeLa = experiment: cells; conditions: Homo sapiens, 48 h
# Description: Antiproliferative activity against human HeLa cells incubated for 48 hrs by MTT assay
# [20] = Toxicity in C57 mouse allografted with mouse B16-F10 cells assessed as body weight loss at 10 mg/kg, ip administered consecutively for 14 days in presence of NP-19; assay type: organism-based; conditions: in vivo, 336 h, time 14 day
# B16-F10 [21] = experiment: Induction of apoptosis in mouse B16-F10 cells assessed as viable cells at 10 nM incubated for 48 hrs by annexinV-FITC/PI staining based flow cytometry (reference value: 93.6 %); assay type: functional; conditions: read-out: Activity
# B16-F10 [22] = experiment: Induction of cell cycle arrest in mouse B16-F10 cells assessed as accumulation at G1 phase at 50 nM incubated for 24 hrs by PI staining based flow cytometry (reference value: 52.77 %); assay type: functional
# B16-F10 [23] = experiment: Induction of cell cycle arrest in mouse B16-F10 cells assessed as accumulation at G1 phase at 25 nM incubated for 24 hrs by PI staining based flow cytometry (reference value: 52.77 %); assay type: functional
# [24] = Toxicity in C57 mouse allografted with mouse B16-F10 cells assessed as body weight loss at 10 mg/kg, ip administered consecutively for 14 days; assay type: organism-based; conditions: in vivo, 336 h, time 14 day
# B16-F10 [25] = experiment: Immunomodulatory activity in mouse B16-F10 cells allografted in C57 mouse assessed as increase in CD3-positive CD4-positive cells at 10 mg/kg, ip administered consecutively for 14 days in presence of NP-19 (reference value: 8.35 %); assay type: functional; conditions: time 14 day
# B16-F10 [26] = experiment: Induction of apoptosis in mouse B16-F10 cells assessed as viable cells at 25 nM incubated for 48 hrs by annexinV-FITC/PI staining based flow cytometry (reference value: 93.6 %); assay type: functional; conditions: read-out: Activity
# B16-F10 [27] = experiment: Induction of apoptosis in mouse B16-F10 cells assessed as early apoptotic cells at 25 nM incubated for 48 hrs by annexinV-FITC/PI staining based flow cytometry (reference value: 4.25 %); assay type: functional
# B16-F10 [28] = experiment: Inhibition of tubulin polymerization in mouse B16-F10 cells assessed as loss of cellular structure incubated for 6 hrs by fluorescence microscopy; assay type: cell-based; conditions: dose 10-50 nM
# B16-F10 [29] = experiment: Induction of apoptosis in mouse B16-F10 cells assessed as early apoptotic cells at 50 nM incubated for 48 hrs by annexinV-FITC/PI staining based flow cytometry (reference value: 4.25 %); assay type: functional
# B16-F10 [30] = experiment: Antitumor activity against mouse B16-F10 cells allografted in C57 mouse assessed as tumor growth inhibition at 10 mg/kg, ip administered consecutively for 14 days in presence of NP-19; assay type: functional; conditions: B16-F10, 336 h, time 14 day, read-out: TGI
# B16-F10 [31] = experiment: Induction of apoptosis in mouse B16-F10 cells assessed as late apoptotic cells at 10 nM incubated for 48 hrs by annexinV-FITC/PI staining based flow cytometry (reference value: 2.06 %); assay type: functional
smiles,measurement,setting,value
COc1ccc2c(c1F)Cc1ccccc1N2C(=O)c1cc(OC)c(OC)c(OC)c1,Activity,B16-F10 [1],6.63%
same,Activity,B16-F10 [2],13.4%
same,Activity,B16-F10 [3],22.85%
same,inhibition at 50 µM,B16-F10 [4],~100%
same,Activity,[5],Non-Toxic
same,viability at 0.05 µM,B16-F10 [6],49.3%
same,IC50,B16-F10 [7],20 nM
same,Activity,B16-F10 [8],24.31%
same,Activity,[9],Non-Toxic
same,Ratio,B16-F10 [10],7.2%
same,Activity,B16-F10 [11],0.61%
same,IC50,HCT-116,23 nM
same,Activity,B16-F10 [12],43.79%
same,Activity,B16-F10 [13],0.268%
same,Activity,B16-F10 [14],19.5%
same,Activity,B16-F10 [15],~60%
same,Activity,B16-F10 [16],50.88%
same,Activity,B16-F10 [17],~10%
same,Activity,B16-F10 [18],10.1%
same,IC50,HepG2,41 nM
same,Activity,B16-F10 [19],24.07%
same,IC50,HeLa,37 nM
same,Activity,[20],Non-Toxic
same,viability at 0.01 µM,B16-F10 [21],91%
same,Activity,B16-F10 [22],3.24%
same,Activity,B16-F10 [23],16.55%
same,Activity,[24],Non-Toxic
same,Activity,B16-F10 [25],26.3%
same,viability at 0.025 µM,B16-F10 [26],70.4%
same,Activity,B16-F10 [27],22.7%
same,inhibition,B16-F10 [28],Dose-Dependent Effect
same,Activity,B16-F10 [29],36.8%
same,inhibition in vivo at 10 mg/kg,B16-F10 [30],77.6%
same,Activity,B16-F10 [31],3.17%
